Values of other authors in publication PMC9603901, “Therapeutic Potential of Antimicrobial Peptide PN5 against Multidrug-Resistant E. coli and Anti-Inflammatory Activity in a Septic Mouse Model” (Microbiology Spectrum, 2022).
≈ marks a conversion by molar mass, not a printed value.

Assays:
Design in all cases: method as in Asan hospital; key to susceptibility category: S: susceptible; R: resistant; I: intermediate
MDR E. coli ASEC 1 = conditions: ref Asan hospital, cited from earlier work; for MIC: ASEC 1 (carbapenemase NDM-1), resistance information of clinical isolate; for susceptibility category: ASEC 1
MDR E. coli ASEC 4 = conditions: ref Asan hospital, cited from earlier work; for MIC: ASEC 4 (ESBL), resistance information of clinical isolate; for susceptibility category: ASEC 4
MDR E. coli ASEC 5 = conditions: ref Asan hospital, cited from earlier work; for MIC: ASEC 5 (ESBL), resistance information of clinical isolate; for susceptibility category: ASEC 5
MDR E. coli ASEC 6 = conditions: ref Asan hospital, cited from earlier work; for MIC: ASEC 6 (ESBL), resistance information of clinical isolate; for susceptibility category: ASEC 6
MDR E. coli ASEC 12 = conditions: ref Asan hospital, cited from earlier work; for MIC: ASEC 12 (AmpC), resistance information of clinical isolate; for susceptibility category: ASEC 12
MDR E. coli ASEC 13 = conditions: ref Asan hospital, cited from earlier work; for MIC: ASEC 13 (AmpC), resistance information of clinical isolate; for susceptibility category: ASEC 13
MDR E. coli ASEC 2 = conditions: ref Asan hospital, cited from earlier work; for MIC: ASEC 2 (NDM-7), resistance information of clinical isolate; for susceptibility category: ASEC 2
MDR E. coli ASEC 3 = conditions: ref Asan hospital, cited from earlier work; for MIC: ASEC 3 (NDM-5), resistance information of clinical isolate; for susceptibility category: ASEC 3
MDR E. coli ASEC 7 = conditions: ref Asan hospital, cited from earlier work; for MIC: ASEC 7 (ESBL), resistance information of clinical isolate; for susceptibility category: ASEC 7
MDR E. coli ASEC 8 = conditions: ref Asan hospital, cited from earlier work; for MIC: ASEC 8 (ESBL), resistance information of clinical isolate; for susceptibility category: ASEC 8
MDR E. coli ASEC 9 = conditions: ref Asan hospital, cited from earlier work; for MIC: ASEC 9 (ESBL), resistance information of clinical isolate; for susceptibility category: ASEC 9
MDR E. coli ASEC 10 = conditions: ref Asan hospital, cited from earlier work; for MIC: ASEC 10 (ESBL), resistance information of clinical isolate; for susceptibility category: ASEC 10
MDR E. coli ASEC 11 = conditions: ref Asan hospital, cited from earlier work; for MIC: ASEC 11 (ESBL), resistance information of clinical isolate; for susceptibility category: ASEC 11
MDR E. coli ASEC 14 = conditions: ref Asan hospital, cited from earlier work; for MIC: ASEC 14 (AmpC), resistance information of clinical isolate; for susceptibility category: ASEC 14
MDR E. coli ASEC 15 = conditions: ref Asan hospital, cited from earlier work; for MIC: ASEC 15 (AmpC), resistance information of clinical isolate; for susceptibility category: ASEC 15
MDR E. coli ASEC 16 = conditions: ref Asan hospital, cited from earlier work; for MIC: ASEC 16 (AmpC), resistance information of clinical isolate; for susceptibility category: ASEC 16
MDR E. coli ASEC 17 = conditions: ref Asan hospital, cited from earlier work; for MIC: ASEC 17 (AmpC), resistance information of clinical isolate; for susceptibility category: ASEC 17
MDR E. coli ASEC 18 = conditions: ref Asan hospital, cited from earlier work; for MIC: ASEC 18 (AmpC), resistance information of clinical isolate; for susceptibility category: ASEC 18
MDR E. coli ASEC 19 = conditions: ref Asan hospital, cited from earlier work; for MIC: ASEC 19 (AmpC), resistance information of clinical isolate; for susceptibility category: ASEC 19

CO/N=C(\C(=O)N[C@@H]1C(=O)N2C(C(=O)O)=C(CSc3nc(=O)c(=O)[nH]n3C)CS[C@H]12)c1csc(N)n1 [Ceftriaxone]
MIC (MDR E. coli ASEC 1): > 32 µg/mL
susceptibility category (MDR E. coli ASEC 1): R
MIC (MDR E. coli ASEC 4): > 32 µg/mL
susceptibility category (MDR E. coli ASEC 4): R
MIC (MDR E. coli ASEC 5): > 32 µg/mL
susceptibility category (MDR E. coli ASEC 5): R
MIC (MDR E. coli ASEC 6): > 32 µg/mL
susceptibility category (MDR E. coli ASEC 6): R
MIC (MDR E. coli ASEC 12): > 32 µg/mL
susceptibility category (MDR E. coli ASEC 12): R
MIC (MDR E. coli ASEC 13): > 32 µg/mL
susceptibility category (MDR E. coli ASEC 13): R

C[C@@H](O)[C@H]1C(=O)N2C(C(=O)O)=C(SCCN=CN)C[C@H]12 [Imipenem]
MIC (MDR E. coli ASEC 1): <= 4 μg mL-1
susceptibility category (MDR E. coli ASEC 1): R
MIC (MDR E. coli ASEC 2): 8 µg/mL (≈ 26.7 µM)
susceptibility category (MDR E. coli ASEC 2): R
MIC (MDR E. coli ASEC 3): > 8 µg/mL
susceptibility category (MDR E. coli ASEC 3): R
MIC (MDR E. coli ASEC 4): > 8 µg/mL
susceptibility category (MDR E. coli ASEC 4): R
MIC (MDR E. coli ASEC 5): > 8 µg/mL
susceptibility category (MDR E. coli ASEC 5): R
MIC (MDR E. coli ASEC 6): > 8 µg/mL
susceptibility category (MDR E. coli ASEC 6): R
MIC (MDR E. coli ASEC 7): <= 1 μg mL-1
susceptibility category (MDR E. coli ASEC 7): S
MIC (MDR E. coli ASEC 8): <= 1 μg mL-1
susceptibility category (MDR E. coli ASEC 8): S
MIC (MDR E. coli ASEC 9): <= 1 μg mL-1
susceptibility category (MDR E. coli ASEC 9): S
MIC (MDR E. coli ASEC 10): <= 1 μg mL-1
susceptibility category (MDR E. coli ASEC 10): S
MIC (MDR E. coli ASEC 11): <= 1 μg mL-1
susceptibility category (MDR E. coli ASEC 11): S
MIC (MDR E. coli ASEC 12): > 8 µg/mL
susceptibility category (MDR E. coli ASEC 12): R
MIC (MDR E. coli ASEC 13): > 8 µg/mL
susceptibility category (MDR E. coli ASEC 13): R
MIC (MDR E. coli ASEC 14): 8 µg/mL (≈ 26.7 µM)
susceptibility category (MDR E. coli ASEC 14): R
MIC (MDR E. coli ASEC 15): <= 1 μg mL-1
susceptibility category (MDR E. coli ASEC 15): S
MIC (MDR E. coli ASEC 16): <= 1 μg mL-1
susceptibility category (MDR E. coli ASEC 16): S
MIC (MDR E. coli ASEC 17): <= 1 μg mL-1
susceptibility category (MDR E. coli ASEC 17): S
MIC (MDR E. coli ASEC 18): <= 1 μg mL-1
susceptibility category (MDR E. coli ASEC 18): S
MIC (MDR E. coli ASEC 19): <= 1 μg mL-1
susceptibility category (MDR E. coli ASEC 19): S

CO[C@@]1(NC(=O)Cc2cccs2)C(=O)N2C(C(=O)O)=C(COC(N)=O)CS[C@@H]21 [Cefoxitin]
MIC (MDR E. coli ASEC 1): > 16 µg/mL
susceptibility category (MDR E. coli ASEC 1): R
MIC (MDR E. coli ASEC 2): > 16 µg/mL
susceptibility category (MDR E. coli ASEC 2): R
MIC (MDR E. coli ASEC 3): > 16 µg/mL
susceptibility category (MDR E. coli ASEC 3): R
MIC (MDR E. coli ASEC 4): > 16 µg/mL
susceptibility category (MDR E. coli ASEC 4): R
MIC (MDR E. coli ASEC 5): > 16 µg/mL
susceptibility category (MDR E. coli ASEC 5): R
MIC (MDR E. coli ASEC 6): > 16 µg/mL
susceptibility category (MDR E. coli ASEC 6): R
MIC (MDR E. coli ASEC 7): <= 8 μg mL-1
susceptibility category (MDR E. coli ASEC 7): S
MIC (MDR E. coli ASEC 8): <= 8 μg mL-1
susceptibility category (MDR E. coli ASEC 8): S
MIC (MDR E. coli ASEC 9): 16 µg/mL (≈ 37.4 µM)
susceptibility category (MDR E. coli ASEC 9): I
MIC (MDR E. coli ASEC 10): <= 8 μg mL-1
susceptibility category (MDR E. coli ASEC 10): S
MIC (MDR E. coli ASEC 11): <= 8 μg mL-1
susceptibility category (MDR E. coli ASEC 11): S
MIC (MDR E. coli ASEC 12): > 16 µg/mL
susceptibility category (MDR E. coli ASEC 12): R
MIC (MDR E. coli ASEC 13): > 16 µg/mL
susceptibility category (MDR E. coli ASEC 13): R
MIC (MDR E. coli ASEC 14): > 16 µg/mL
susceptibility category (MDR E. coli ASEC 14): R
MIC (MDR E. coli ASEC 15): > 16 µg/mL
susceptibility category (MDR E. coli ASEC 15): R
MIC (MDR E. coli ASEC 16): > 16 µg/mL
susceptibility category (MDR E. coli ASEC 16): R
MIC (MDR E. coli ASEC 17): > 16 µg/mL
susceptibility category (MDR E. coli ASEC 17): R
MIC (MDR E. coli ASEC 18): > 16 µg/mL
susceptibility category (MDR E. coli ASEC 18): R
MIC (MDR E. coli ASEC 19): > 16 µg/mL
susceptibility category (MDR E. coli ASEC 19): R
